This passage reports inhibition results from patent EP4578856A1, “HETEROCYCLIC COMPOUND” (Ubience Inc., priority 2022, dated 2024).

This assay has as its target ROCK2 protein (Homo sapiens, UniProt O75116). In words: Degradation inducing activity of ROCK2 protein in HUVEC cells, Western blotting (Simple Western JESS). It is filed as cell-based. Further details: endogenous in cells; host or cells: HUVEC (ATCC CRL-1730). To be noted: HUVEC, 24 h; for inhibition at 1 µM: degradation rate at 1 µM; for inhibition at 10 µM: degradation rate at 10 µM. As for the experimental part: In vitro degradation inducing activity of ROCK2 protein of compounds of Examples was evaluated by Western Blotting (WB).
By a test compound, 10 mM DMSO solution was prepared, which was used as a 10 µM test compound solution. Further, the solution was diluted 10-fold with DMSO to prepare a 1 mM solution, which was used as a 1 µM test compound solution.
HUVEC cells (ATCC: CRL-1730, Lot: 70041472) were cultured in F-12K medium supplemented with 10% FBS, 0.1 mg/mL heparin, […] Endothelial Cell Growth Supplement (ECGS, Corning), and 1% Penicillin/Streptomycin. The HUVEC cells seeded in a 24 well plate at 50,000 cells/well/1 mL were cultured for 24 hours, and then 1 µL of DMSO or a test compound solution was added thereto and treatment was performed for 24 hours. Cells were harvested and lysed for 20 minutes on ice using lysis buffer (Cell Signaling Technology, Cat#9803) supplemented with protease inhibitor cocktail (Sigma, Cat#P8340; Roche, Cat#P11873580001), and phosphatase inhibitor cocktail (Sigma, Cat#P5726, P0044). The lysate was sonicated (15 seconds, amplitude 30%, 1 cycle) and then centrifuged at 12500 rpm for 15 minutes at 4°C. The protein concentration was determined by BCA assay kit (Thermo Fisher Scientific, Cat#23225).
The western blotting was performed using Simple Western JESS (protein simple). A cell lysis sample (protein amount; about 1.06 µg) was loaded on a plate of Simple Western JESS, and the expression level of ROCK2 protein was detected using a 12-230 kDa Wes Separation Module (Protein simple, Cat#SM-WO04), an Anti-Rabbit Detection Module for Wes (Protein simple, Cat#DM-001), and a Total Protein Detection Module for Wes (Protein simple, Cat#DM-TP01). As the primary antibody, a material obtained by diluting ROCK2 (D1B1) Rabbit mAb (Cell Signaling Technology, Cat#9029) at 1:10 was used, and as the secondary antibody, a material obtained by diluting HRP-labeled anti-rabbit IgG antibody (Cell Signaling Technology, Cat#7074S) at 1:100 was used. The expression level of the target protein was standardized using the total protein amount loaded as a reference. The standardized expression level data of the control (DMSO) was taken as 100%, and the degradation rate (%) was calculated from the average standardized expression level data of the test compound. All analysis steps, such as data detection and analysis, are fully automated.
With respect to the ROCK2 protein degradation rate of the test compound, the protein degradation rates (%) at the evaluation concentrations were set to A ≥ 75%, 75% > B ≥ 50%, 50% > C ≥ 25%, and D < 25%, and are shown in Table 7.
Background: A western blot detects proteins with antibodies after separation by electrophoresis.

Where only a bound is given, the exact number is not on record here.

ROCK2 protein, sequence (O75116 whole entry): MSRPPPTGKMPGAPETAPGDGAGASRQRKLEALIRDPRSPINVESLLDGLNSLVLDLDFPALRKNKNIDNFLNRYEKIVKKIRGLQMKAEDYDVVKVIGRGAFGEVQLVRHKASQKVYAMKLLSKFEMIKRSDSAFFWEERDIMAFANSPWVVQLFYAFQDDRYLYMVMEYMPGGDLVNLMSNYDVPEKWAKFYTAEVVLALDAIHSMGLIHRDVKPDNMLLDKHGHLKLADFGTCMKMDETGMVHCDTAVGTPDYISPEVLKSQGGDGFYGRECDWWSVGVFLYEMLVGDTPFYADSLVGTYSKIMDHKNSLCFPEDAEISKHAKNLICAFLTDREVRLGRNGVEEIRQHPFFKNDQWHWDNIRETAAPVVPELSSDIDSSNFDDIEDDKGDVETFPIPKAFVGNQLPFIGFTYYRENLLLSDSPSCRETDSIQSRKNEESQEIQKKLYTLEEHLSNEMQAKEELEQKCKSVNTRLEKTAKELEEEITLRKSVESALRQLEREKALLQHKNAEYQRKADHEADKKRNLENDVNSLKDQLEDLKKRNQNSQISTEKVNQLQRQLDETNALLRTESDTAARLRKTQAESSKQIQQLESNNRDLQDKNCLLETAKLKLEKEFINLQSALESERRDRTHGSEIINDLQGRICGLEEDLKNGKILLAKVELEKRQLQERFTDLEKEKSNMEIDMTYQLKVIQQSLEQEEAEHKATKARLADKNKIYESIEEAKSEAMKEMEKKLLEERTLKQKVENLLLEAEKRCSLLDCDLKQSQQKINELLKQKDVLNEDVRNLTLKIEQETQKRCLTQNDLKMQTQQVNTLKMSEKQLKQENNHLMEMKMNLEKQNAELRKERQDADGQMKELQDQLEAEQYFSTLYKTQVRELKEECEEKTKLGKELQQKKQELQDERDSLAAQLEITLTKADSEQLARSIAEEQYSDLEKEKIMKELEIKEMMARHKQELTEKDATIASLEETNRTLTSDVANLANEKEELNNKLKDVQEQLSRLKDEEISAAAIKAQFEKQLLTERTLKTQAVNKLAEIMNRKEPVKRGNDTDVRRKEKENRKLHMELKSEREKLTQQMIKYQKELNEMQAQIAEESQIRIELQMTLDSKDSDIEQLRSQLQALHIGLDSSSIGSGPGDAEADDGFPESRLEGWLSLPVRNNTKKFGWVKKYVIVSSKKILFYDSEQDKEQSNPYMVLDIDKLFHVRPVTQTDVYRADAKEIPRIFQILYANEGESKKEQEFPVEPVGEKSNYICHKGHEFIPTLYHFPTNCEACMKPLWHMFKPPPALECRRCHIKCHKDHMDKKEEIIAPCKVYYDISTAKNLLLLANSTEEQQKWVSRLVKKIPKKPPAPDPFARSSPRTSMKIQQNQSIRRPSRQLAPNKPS

A word on the inhibition: it is the change of the read-out against control, counted positive when it falls. As for `COC[C@H]1CN[C@H](C)CN1CC(=O)N1CC(C)(C)c2ncc(Cc3ccccc3OCCOCCOCCOCCOCCOCCOCCOCCN[C@H](C)c3ccc(C(=O)Nc4ccncc4)cc3)cc21` [Example 70, 4-((R)-26-(2-((1-(2-((2R,5R)-2-(Methoxymethyl)-5-methylpiperazin-1-yl)acetyl)-3,3-dimethyl-2,3-dihydro-1H-pyrrolo[3,2-b]pyridin-6-yl)methyl)phenoxy)-6,9,12,15,18,21,24-heptaoxa-3-azahexacosan-2-yl)-N-(pyridin-4-yl)benzamide], the inhibition at 1 µM is ≥ 75% and the inhibition at 10 µM is ≥ 75%.

`COC[C@H]1CN[C@H](C)CN1CC(=O)N1CC(C)(C)c2ncc(Cc3ccccc3OCCOCCOCCOCCOCCOCCOCCOCCNC[C@@H](C(=O)Nc3ccc4cnccc4c3)c3ccccc3)cc21` [Example 84, (S)-N-(Isoquinolin-6-yl)-1-(2-((1-(2-((2R,5R)-2-(methoxymethyl)-5-methylpiperazin-1-yl)acetyl)-3,3-dimethyl-2,3-dihydro-1H-pyrrolo[3,2-b]pyridin-6-yl)methyl)phenoxy)-26-phenyl-3,6,9,12,15,18,21-heptaoxa-24-azaheptacosan-27-amide] registered an inhibition at 1 µM of 50 to 75% and an inhibition at 10 µM of 25 to 50%.

On to `COC[C@H]1CN[C@H](C)CN1CC(=O)N1CC(C)(C)c2ncc(Cc3cccc(OCCOCCOCCOCCOCCOCCN[C@H](C)c4ccc(C(=O)Nc5ccncc5)cc4)c3)cc21` [Example 47, 4-((R)-20-(3-((1-(2-((2R,5R)-2-(Methoxymethyl)-5-methylpiperazin-1-yl)acetyl)-3,3-dimethyl-2,3-dihydro-1H-pyrrolo[3,2-b]pyridin-6-yl)methyl)phenoxy)-6,9,12,15,18-pentaoxa-3-azaicosan-2-yl)-N-(pyridin-4-yl)benzamide], for which the inhibition at 1 µM was in the range of 50 to 75% and the inhibition at 10 µM was ≥ 75%.

With `C[C@@H]1CN(CC(=O)N2CC(C)(C)c3ncc(Cc4ccc(F)cc4)cc32)[C@@H](CN(C)CCOCCOCCOCCOCCOCCOCCN[C@H](Cc2cccc(F)c2)C(=O)Nc2ccc(-c3ccncc3)cc2)CN1` [Example 13, (R)-24-(3-Fluorobenzyl)-1-((2R,5R)-1-(2-(6-(4-fluorobenzyl)-3,3-dimethyl-2,3-dihydro-1H-pyrrolo[3,2-b]pyridin-1-yl)-2-oxoethyl)-5-methylpiperazin-2-yl)-2-methyl-N-(4-(pyridin-4-yl)phenyl)-5,8,11,14,17,20-hexaoxa-2,23-diazapentacosan-25-amide], the inhibition at 1 µM was < 25% and the inhibition at 10 µM is < 25%.

As to `C[C@@H]1CN(CC(=O)N2CC(C)(C)c3ncc(Cc4ccc(F)cc4)cc32)[C@@H](CN(C)CCOCCOCCOCCOCCOCCOCCN[C@H](C)c2ccc(C(=O)Nc3ccncc3)cc2)CN1` [Example 6, 4-((R)-1-((2R,5R)-1-(2-(6-(4-Fluorobenzyl)-3,3-dimethyl-2,3-dihydro-1H-pyrrolo[3,2-b]pyridin-1-yl)-2-oxoethyl)-5-methylpiperazin-2-yl)-2-methyl-5,8,11,14,17,20-hexaoxa-2,23-diazapentacosan-24-yl)-N-(pyridin-4-yl)benzamide], the inhibition at 1 µM was in the range of 50 to 75% and the inhibition at 10 µM was ≥ 75%.

Consider `COC[C@H]1CN[C@H](C)CN1CC(=O)N1CC(C)(C)c2nc(CN(C)CCOCCOCCOCCNC[C@@H](C(=O)Nc3ccc4cnccc4c3)c3ccccc3)c(Cc3ccc(F)cc3)cc21` [Example 38, (S)-1-(6-(4-Fluorobenzyl)-1-(2-((2R,5R)-2-(methoxymethyl)-5-methylpiperazin-1-yl)acetyl)-3,3-dimethyl-2,3-dihydro-1H-pyrrolo[3,2-b]pyridin-5-yl)-N-(isoquinolin-6-yl)-2-methyl-16-phenyl-5,8,11-trioxa-2,14-diazaheptadecan-17-amide], for which the inhibition at 1 µM is < 25% and the inhibition at 10 µM is ≥ 75%.
